According to US20120165319A1, “INHIBITORS OF INTERLEUKIN-1 BETA CONVERTING ENZYME” (VERTEX PHARMACEUTICALS INCORPORATED, priority 1995, published 2012):

What was measured:
[1] = target: T1, TX (Homo sapiens, UniProt P49662); experiment: Inhibition of ICE homologs: TX; format: biochemical; conditions: for kinact (TX): second-order rate constant for inactivation, irreversible inhibitors (Table 2); for Ki: ICE substrate, conditions identical to ICE (Table 1)
T1 construct: made in house; host or cells: Spodoptera frugiperda (Sf9) insect cells, recombinant baculovirus (pVL1393/TX)
T1 sequence (P49662 81-270 limits assumed): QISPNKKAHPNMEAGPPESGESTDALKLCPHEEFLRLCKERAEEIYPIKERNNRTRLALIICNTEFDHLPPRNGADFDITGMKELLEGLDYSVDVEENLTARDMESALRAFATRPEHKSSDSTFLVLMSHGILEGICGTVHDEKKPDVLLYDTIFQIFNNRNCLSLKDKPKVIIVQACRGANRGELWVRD
T1 sequence (P49662 290-377 limits assumed): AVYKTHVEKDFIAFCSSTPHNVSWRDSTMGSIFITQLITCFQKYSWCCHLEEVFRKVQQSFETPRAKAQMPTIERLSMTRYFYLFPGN
From the text: Expression of TX in insect cells using a baculovirus expression system. We have subcloned Tx cDNA (Faucheu et al., supra 1995) into a modified pVL1393 transfer vector, co-transfected the resultant plasmid (pVL1393/TX) into insect cells with viral DNA and identified the recombinant baculovirus. After the generation of high titer recombinant virus stock, the medium was examined for TX activity using the visible ICE assay. […] ICE was used as a standard in the assay.
(§1) The selectivity of a panel of reversible inhibitors for ICE homologs is depicted in Table 1. ICE enzyme assays were performed according to Wilson et al (supra 1994) using a YVAD-AMC substrate (Thornberry et al, supra 1992). Assay of TX activity was performed using the ICE substrate under identical conditions to ICE. Assay of CPP32 was performed using a DEVD-AMC substrate (Nicholson et al., supra 1995). In general, there is low selectivity between ICE and TX for a wide range of scaffolds. None of the synthetic ICE compounds tested are effective inhibitors of CPP32.
(§2) Second-order rate constants for inactivation of ICE and ICE homologs with selected irreversible inhibitors are presented below (Table 2). The irreversible compounds studied are broad spectrum inhibitors of ICE and its homologs. Some selectivity, however, is observed with the irreversible compounds comparing inhibition of ICE and CPP32.

[2] = target: T2, ICE (Homo sapiens, UniProt P29466); experiment: Enzyme assay with fluorescent substrate (Acetyl-Tyr-Val-Ala-Asp-AMC); Ki and second order rate constants kinact; format: biochemical; conditions: for kinact (ICE): second-order rate constant for inactivation, irreversible inhibitors (Table 2)
T2 sequence (P29466 120-297 limits assumed): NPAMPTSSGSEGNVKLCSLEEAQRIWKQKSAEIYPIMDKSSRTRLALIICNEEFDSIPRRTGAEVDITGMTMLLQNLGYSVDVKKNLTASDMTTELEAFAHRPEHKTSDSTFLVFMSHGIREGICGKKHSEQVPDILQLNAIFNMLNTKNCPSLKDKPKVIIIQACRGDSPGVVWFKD
T2 sequence (P29466 317-404 limits assumed): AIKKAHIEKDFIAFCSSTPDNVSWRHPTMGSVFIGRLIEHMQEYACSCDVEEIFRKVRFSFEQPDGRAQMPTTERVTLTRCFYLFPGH
Protocol: 2. Enzyme Assay with Fluorescent Substrate
This assay is run essentially according to Thornberry et al. (Nature 356: 768-774 (1992)), using substrate 17 referenced in that article. The substrate is: Acetyl-Tyr-Val-Ala-Asp-amino-4-methylcoumarin (AMC). The following components are mixed:
The assay is run in a 96 well microtiter plate. Buffer and ICE are added to the wells. The components are left to incubate at 37° C. for 15 minutes in a temperature-controlled wellplate. After the 15 minute incubation, the reaction is started by adding substrate directly to the wells and the reaction is monitored @37° C. for 30 minutes by following the release of the AMC fluorophore using an excitation wavelength for 380 nm and an emission wavelength of 460 nm. A linear fit of the data for each well is performed and a rate is determined in fluorescence units per second.
For determination of enzyme inhibition constants (Ki) or the mode of inhibition (competitive, uncompetitive or noncompetitive), the rate data determined in the enzyme assays at varying inhibitor concentrations are computer-fit to standard enzyme kinetic equations (see I. H. Segel, Enzyme Kinetics, Wiley-Interscience, 1975).
The determination of second order rate constants for irreversible inhibitors was performed by fitting the fluorescence vs time data to the progress equations of Morrison. Morrison, J. F., Mol. Cell. Biophys., 2, pp. 347-368 (1985). Thornberry et al. have published a description of these methods for measurement of rate constants of irreversible inhibitors of ICE. Thornberry, N. A., et al. Biochemistry, 33, pp. 3923-3940 (1994). For compounds where no prior complex formation can be observed kinetically, the second order rate constants (kinact) are derived directly from the slope of the linear plots of kobs vs. [I]. For compounds where prior complex formation to the enzyme can be detected, the hyperbolic plots of kobs vs. [I] are fit to the equation for saturation kinetics to first generate Ki and k′. The second order rate constant kinact is then given by k′/Ki.
as §1, §2

[3] = target: T3, CPP32 (Homo sapiens, UniProt P42574); experiment: Inhibition of ICE homologs: CPP32 (DEVD-AMC substrate); conditions: for kinact (CPP32): second-order rate constant for inactivation, irreversible inhibitors (Table 2)
T3 sequence (P42574 29-175 limits assumed): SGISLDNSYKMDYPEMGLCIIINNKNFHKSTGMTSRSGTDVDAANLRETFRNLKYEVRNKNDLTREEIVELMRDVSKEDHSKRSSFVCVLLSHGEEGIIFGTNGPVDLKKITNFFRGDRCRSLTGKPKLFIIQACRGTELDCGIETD
T3 sequence (P42574 176-277 limits assumed): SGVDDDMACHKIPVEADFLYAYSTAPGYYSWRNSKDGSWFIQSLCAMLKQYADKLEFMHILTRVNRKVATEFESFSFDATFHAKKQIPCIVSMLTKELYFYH

[4] = system: U937 cells; experiment: Fas-induced apoptosis in U937 cells; conditions: Homo sapiens; for inhibition at 20 µM: U-937, read-out: Inhibition of apoptosis
Protocol: Fas-Induced Apoptosis in U937 cells. Compounds were evaluated for their ability to block anti-Fas-induced apopotosis. […] We used this cell line for apoptosis studies. U937 cells were seeded in culture at 1×10^5 cells/ml and grown to ˜5×10^6 cells/ml. For apoptosis experiments, 2×10^6 cells were plated in 24-well tissue culture plates in 1 ml RPMI-1640-10% FBS and stimulated with 100 ng/ml anti-Fas antigen antibody (Medical and Biological Laboratories, Ltd.). After a 24 hr incubation at 37° C., the percentage of apoptotic cells was determined by FACS analysis using ApoTag reagents.

Q: How did the “kinact (TX)” value [1] turn out when O=C(O)C[C@H](NC(=O)[C@@H]1CCCN2C(=O)CC[C@H](NC(=O)OCc3ccccc3)C(=O)N12)C(=O)COC(=O)c1c(Cl)cccc1Cl [Compound 217d, [3S(1S,9S)]3-(9-Benzyloxycarbonylamino-6,10-dioxo-1,2,3,4,7,8,9,10-octahydro-6H-pyridazino[1,2-a][1,2]-diazepine-1-carboxamido)-5-(2,6-dichlorobenzoyloxy)-4-oxopentanoic acid] was run?
A: Its value is 250,000 M^−1 s^−1.

Q: What about the “Fluorescent Assay kinact” value ([2]; Table 6) of the same compound?
A: Its value is 4.7 × 10^5 m^−1 s^−1.

Q: What about the “kinact (ICE)” value [2] of the same compound?
A: The value was 475,000 M^−1 s^−1.

Q: And the “kinact (CPP32)” value [3]?
A: Its value is 150,000 M^−1 s^−1.

Q: CS(=O)(=O)N[C@H]1CCC(=O)N2CCC[C@@H](C(=O)N[C@@H](CC(=O)O)C(=O)COC(=O)c3sccc3Cl)N2C1=O [505 e, [3S(1S,9S)]5-(3-Chlorothien-2-oyloxy)-3-(6,10-dioxo-9-methanesulphonylamino-1,2,3,4,7,8,9,10-octahydro-6H-pyridazino[1,2-a][1,2]diazepine-1-carboxamido)-4-oxopentanoic acid] was tested. Which “Fluorescent Assay kinact” value ([2]; Table 18) did it give?
A: The value was 420000 m^−1 s^−1.

Q: O=C(O)C[C@H](NC(=O)[C@@H]1CCCN2C(=O)CC[C@H](NC(=O)c3ccccc3)C(=O)N12)C(=O)COC(=O)c1c(Cl)cccc1Cl [Compound 217e, [3S(1S,9S)]3-(9-Benzoylamino-6,10-dioxo-1,2,3,4,7,8,9,10-octahydro-6H-pyridazino[1,2-a][1,2]-diazepine-1-carboxamido)-5-(2,6-dichlorobenzoyloxy)-4-oxopentanoic acid] was tested. Which IC50 ([4]; U-937, 24 h, read-out: IC50, anti-Fas-induced apoptosis) did it give?
A: Its IC50 is 800 nM.

Q: For COC(=O)N[C@H]1CCC(=O)N2CCC[C@@H](C(=O)N[C@@H](CC(=O)O)C(=O)COC(=O)c3c(C)cccc3C)N2C1=O [Compound 285, [3S(1S,9S)]5-(2,6-Dimethylbenzoyloxy)-3-[6,10-dioxo-9-(methoxycarbonyl)amino-1,2,3,4,7,8,9,10-octahydro-6H-pyridazino[1,2-a][1,2]diazepine-1-carboxamido]-4-oxopentanoic acid], which “Fluorescent Assay kinact” value ([2]; Table 6) is on record?
A: Its value is 4.3 × 10^5 m^−1 s^−1.

Q: With CS(=O)(=O)N[C@H]1CCC(=O)N2CCC[C@@H](C(=O)N[C@@H](CC(=O)O)C(=O)COC(=O)c3cccc4ccccc34)N2C1=O [Compound 286, [3S(1S,9S)]3-(6,10-Dioxo-9-methanesulphonylamino-1,2,3,4,7,8,9,10-octahydro-6H-pyridazino[1,2-a][1,2]diazepine-1-carboxamido)-5-(1-naphthoyloxy)-4-oxopentanoic acid] as the compound, how does the “Fluorescent Assay kinact” value ([2]; Table 18) read?
A: The value was 370000 m^−1 s^−1.

Q: Which results are given for O=C(O)C[C@H](NC(=O)[C@@H]1CCCN2C(=O)CC[C@H](NC(=O)CCc3ccccc3)C(=O)N12)C(=O)c1ncc(-c2c(Cl)cccc2Cl)o1 [Compound 137]?
A: Ki [1]: 40 ± 7 nM; Ki [3]: > 1000 nM

Q: How did the “kinact (TX)” value [1] turn out when CS(=O)(=O)N[C@H]1CCC(=O)N2CCC[C@@H](C(=O)N[C@@H](CC(=O)O)C(=O)COC(=O)c3c(Cl)cccc3Cl)N2C1=O [Compound 138] was run?
A: The value was 150,000 M^−1 s^−1.

Q: What about the “Fluorescent Assay kinact” value ([2]; Table 6) of the same compound?
A: Its value is 1.2 × 10^5 m^−1 s^−1.

Q: And the “kinact (ICE)” value [2]?
A: The value was 120,000 M^−1 s^−1.

Q: What about the “kinact (CPP32)” value [3] of the same compound?
A: Its value is 550,000 M^−1 s^−1.

Q: What about the inhibition at 20 µM [4] of the same compound?
A: The inhibition at 20 µM was > 75%.

Q: With “[3S(1S,9S)]3-[(6,10-Dioxo-9-(methanesulphonylamino)-1,2,3,4,7,8,9,10-octahydro-6H-pyridazino[1,2-a][1,2]diazepine-1-carboxamido]-5-(5-methyl-3-phenylisoxazoyloxy)-4-oxopentanoic acid [505 b]” as the compound, how does the “Fluorescent Assay kinact” value ([2]; Table 18) read?
A: Its value is 190000 m^−1 s^−1.

Q: How did the Ki [1] turn out when O=C(O)C[C@H](NC(=O)[C@@H]1CCCN2C(=O)CC[C@H](NC(=O)CCc3ccccc3)C(=O)N12)C(=O)CSCc1ccccc1Cl [Compound 125b, [3S(1S,9S)]-3-(6,10-dioxo-1,2,3,4,7,8,9,10-octahydro)-9-(3-phenylpropionyl-amino)-6H-pyridazine[1,2-a][1,2]diazepine-1-carboxamido-5-(2-chlorophenyl-methylthio)-4-oxopentanoic acid] was run?
A: The Ki was 57 ± 13 nM.

Q: And the Ki [3]?
A: The Ki was > 1000 nM.

Q: With O=C(O)C[C@H](NC(=O)[C@@H]1CCCN2C(=O)CC[C@H](NC(=O)c3ccccc3)C(=O)N12)C(=O)CSc1nnnn1-c1ccccc1 [Compound 280, [3S(1S,9S)]3-(9-Benzoylamino-6,10-dioxo-1,2,3,4,7,8,9,10-octahydro-6H-pyridazino[1,2-a][1,2]diazepine-1-carboxamido)-4-oxo-5(1-phenyl-1H-tetrazole-5-thio)pentanoic acid] as the compound, how does the “Fluorescent Assay kinact” value ([2]; Table 6) read?
A: Its value is 4 × 10^5 m^−1 s^−1.

Q: Which “Fluorescent Assay kinact” value ([2]; Table 6) does the source give for COC(=O)N[C@H]1CCC(=O)N2CCC[C@@H](C(=O)N[C@@H](CC(=O)O)C(=O)COC(=O)c3c(Cl)cccc3Cl)N2C1=O [Compound 284, [3S(1S,9S)]5-(2,6-Dichlorobenzoyloxy)-3-[6,10-dioxo-9-(methoxycarbonyl)amino-1,2,3,4,7,8,9,10-octahydro-6H-pyridazino[1,2-a][1,2]diazepine-1-carboxamido]-4-oxopentanoic acid] here?
A: The value was 3.5 × 10^5 m^−1 s^−1.

Q: For O=C(O)C[C@H](NC(=O)[C@@H]1CCCN2C(=O)CC[C@H](NC(=O)c3ccccc3)C(=O)N12)C(=O)COc1cccnc1 [Compound 283, [3S(1S,9S)]3-[9-Benzoylamino-6,10-dioxo-1,2,3,4,7,8,9,10-octahydro-6H-pyridazino[1,2-a][1,2]diazepine-1-carboxamido]-4-oxo-5-(3-pyridyloxy)pentanoic acid], which “Fluorescent Assay kinact” value ([2]; Table 6) is on record?
A: The value was 1 × 10^5 m^−1 s^−1.

Q: What does the source list for O=C(O)C[C@H](NC(=O)[C@@H]1CCCN2C(=O)CC[C@H](NC(=O)CCc3ccccc3)C(=O)N12)C(=O)COC(=O)c1c(Cl)cccc1Cl [Compound 136]?
A: Fluorescent Assay kinact ([2]; Table 6): 5.4 × 10^5 m^−1 s^−1; inhibition at 20 µM [4]: > 75%

Q: Which Ki [1] does the source give for COc1cccc2nc(C(=O)[C@H](CC(=O)O)NC(=O)[C@@H]3CCCN4C(=O)CC[C@H](NC(=O)CCc5ccccc5)C(=O)N34)oc12 [Compound 135a] here?
A: The Ki was 55 ± 9 nM.

Q: And the Ki [3]?
A: Its Ki is > 1000 nM.
